Experimental data reported in patent US20080200404A1, “Novel Antimalarial 9A-Carbamoyl-Aminoalkyl and 9A-Thiocarbamoyl-Aminoalkyl Azalides” (priority 2005, published 2008).
Converted amounts (≈) assume the structure as drawn.

Experiments:
[1] = test system: Plasmodium berghei; details: cited from earlier work
[2] = test system: Plasmodium yoelli nigeriensis; details: cited from earlier work
[3] = test system: Plasmodium cynomolgi; details: rhesus monkey; cited from earlier work
[4] = test system: Plasmodium falciparum; details: non-immune patients, as compared to controls; cited from earlier work
[5] = test system: Plasmodium vivax; details: non-immune patients, as compared to controls; cited from earlier work
[6] = test system: Plasmodium falciparum TM91C235; assay: In vitro antimalarial [3H]-hypoxanthine incorporation assay, TM91C235; assay type: cell-based; details: Plasmodium falciparum; P. falciparum TM91C235 (multiple drug resistant isolate), 72 hours exposure
Summary of the method: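 Multidrug-resistant P. falciparum TM91C235 was run at 0.4% parasitemia and 1% hematocrit in folate/PABA-free RPMI-1640 with ALBUMAX, at 37° C under 5% CO2/5% O2. Compound was tested in duplicate at 25,000, 2,500 and 25 ng/ml, preexposed 48 h, then [3H]-hypoxanthine was added (72 h total). Counts are expressed relative to untreated parasite controls.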

[7] = test system: Plasmodium falciparum clone CDC/Sierra Leone I (D-6); assay: In vitro antimalarial [3H]-hypoxanthine incorporation serial dilution assay, D6; assay type: cell-based; details: Plasmodium falciparum, D6, 72 h, P. falciparum D6, 72 hours exposure; read-out: IC50 D6
Summary of the method: (§1)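 Blood-stage cultures in RPMI-1640 with 6% A+ erythrocytes and human plasma or ALBUMAX, 37° C under 5% CO2/5% O2. Compounds in two-fold dilutions over 11 concentrations; [3H]-hypoxanthine incorporation after 72 h total incubation, CPM normalised to untreated parasite controls; IC50 by non-linear logistic fit.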

[8] = test system: Plasmodium falciparum clone CDC/Indochina III (W-2); assay: In vitro antimalarial [3H]-hypoxanthine incorporation serial dilution assay, W2; assay type: cell-based; details: Plasmodium falciparum; P. falciparum W2, 72 hours exposure
Summary of the method: as §1

Molecule | activity in mouse model [1] | activity in mouse model [2] | efficacy in monkey model [3] | prophylactic efficacy for Plasmodium falciparum [4] [%] | prophylactic efficacy for Plasmodium vivax [5] [%] | IC50 [6] [µg/mL] | IC50 [7] [µg/mL] | IC50 [8] [µg/mL]
midecamycinin | active | active | no efficacy |  |  |  |  | 
CC[C@H]1OC(=O)[C@H](C)[C@@H](O[C@H]2C[C@@](C)(OC)[C@@H](O)[C@H](C)O2)[C@H](C)[C@@H](O[C@@H]2O[C@H](C)C[C@H](N(C)C)[C@H]2O)[C@](C)(O)C[C@@H](C)CN(C)[C@H](C)[C@@H](O)[C@]1(C)O [azithromycin] |  |  | active | 71.6 | 98.9 |  |  | 
CC[C@H]1OC(=O)[C@H](C)[C@@H](O[C@H]2C[C@@](C)(OC)[C@@H](O)[C@H](C)O2)[C@H](C)[C@@H](O[C@@H]2O[C@H](C)C[C@H](N(C)C)[C@H]2O)[C@](C)(O)C[C@@H](C)CN(CCCNC(=S)Nc2ccc(OC(F)F)cc2)[C@H](C)[C@@H](O)[C@]1(C)O [Example 106] |  |  |  |  |  | 0.12 (≈ 0.121 µM) | 0.215 (≈ 0.216 µM) | 0.0626 (≈ 0.063 µM)
